{"source": "patent US9301943B2", "about": "“Use of eupatilin” (UNIVERSITY-INDUSTRY COOPERATION GROUP OF KYUNG HEE …, priority 2011, dated 2016)", "key": {"[1]": {"test_system": "estrogen receptor", "experiment": "Luciferase assay (3×ERE TATA luc), MCF7 cell line", "type": "cell-based, human", "conditions": "for Estrogen receptor subtype through which the substance acts (luciferase assay with siERα / siERβ): MCF-7 breast cancer cells, siRNA 50 nM; for Luciferase activity (-fold): MCF7, 24 h, non-treated group = 1", "description": "(§1) MCF-7 (estrogen receptor-positive human breast cancer cell line), Ishikawa (estrogen receptor-positive endometrial cancer cell line), and MG-63 (human osteosarcoma; osteoblast-like cell line) were obtained from the American Type Culture Collection (ATCC). BG-1 (uterine cancer cell line) was furnished by courtesy of Dr. Korach (NIH, USA). Cells were cultured in a Dulbecco's modified Eagle's medium (DMEM) containing 10% fetal bovine serum (FBS), 100 U/ml penicillin and 100 U/ml streptomycin, at 37° C. and 5% CO2.\n(§2) The luciferase assay is an assay of estimating an estrogenic activity by measuring the degree of a luciferase activity generated upon binding of a substance having an estrogenic activity to an estrogen receptor. This assay was carried out in the following procedure. Unless otherwise specified, the reagents used were purchased from Gibco (Karlwruhe, Germany).\n(§3) The luciferase reporter plasmid used was 3×ERE TATA luc. (Addgene, Cambridge, USA). In order to control transfection efficiency, phRenilla-luciferase-CMV (Promega, Mannheim, Germany) as an internal control plasmid was co-transfected. Cells were cultured at a density of 2×10^5 cells/well in a 6-well plate, in a phenol red-free DMEM (Dulbecco's modified Eagle's medium) supplemented with 100 U/ml penicillin, […] streptomycin, 1 mM sodium pyruvate, 1 mM glutamine, and 10% charcoal dextran-treated fetal bovine serum (FBS). After the cells were cultured to a 50 to 60% confluence, the medium was removed, the cells were placed at 37° C. and 5% CO2 for 6 hours on a serum-free OPTI-MEM medium containing plasmid DNA constructs and 2 μg/ml of polyethyleneimine (PEI), according to the manufacturer's instructions. 1 μg/well of 3×ERE TATA luc and 100 ng of a phRL-CMV plasmid were subjected to transfection.\n(§4) After the period of transfection, the medium was replaced with a phenol-free DMEM supplemented with 10% charcoal dextran-treated FBS, and the cells were cultured at 37° C. and 5% CO2 overnight prior to treatment of eupatilin.\n(§5) After 18 hours of culture, the medium was replaced with a eupatilin-containing medium. The proteins were extracted 24 hours later, and firefly and renilla luciferase activities were measured on a luminometer (Molecular Devices, Sunnyvale, Calif.) using a Dual Luciferase Assay kit (Promega, Madison, Wis.) according to the manufacturer's instructions.\n(§6) All experiments were carried out in triplicate and were repeated at least three times. For the luciferase assay, total cell lysates were prepared, the firefly luciferase activity was assayed and normalized to the renilla luciferase activity according to the manufacturer's instructions (Promega). Further, in order to knock down the cell levels of specific proteins, cells with co-transfection of small interfering RNAs (siRNAs) together with 3×ERE TATA luc and phRL-CMV were prepared and subjected to the same treatment of eupatilin or the like as in the cells which were not treated with siRNAs. The siRNAs used were purchased from Bioneer Corporation (Daejeon, South Korea) and treated at a concentration of 50 nM. The “siERα” means siRNA which inhibits the expression of ERα, and the “siERβ” means siRNA which inhibits the expression of ERβ."}, "[2]": {"test_system": "estrogen receptor", "experiment": "Luciferase assay (3×ERE TATA luc), Ishikawa cells", "type": "cell-based", "conditions": "for Estrogen receptor subtype through which the substance acts (luciferase assay with siERα / siERβ): Ishikawa endometrial cancer cells, siRNA 50 nM; for Luciferase activity (-fold): Ishikawa, 24 h, non-treated group = 1", "description": "as §1, §2, §3, §4, §5, §6"}, "[3]": {"test_system": "estrogen receptor", "experiment": "Luciferase assay (3×ERE TATA luc), BG-1 cell line", "type": "cell-based", "conditions": "24 h, non-treated group = 1", "description": "as §1, §2\nas §3, with “1 μg/well of 3×ERE TATA luc and 100 ng of a phRL-CMV plasmid were subjected to transfection.” left out\nas §5, with “instructions. […]” for “instructions.”"}, "[4]": {"biological_target": "T1, estrogen receptor (Homo sapiens, UniProt Q92731)", "T1 construct": "MG-63 (human osteosarcoma; osteoblast-like cell line); endogenous in cells; host or cells: MG-63", "T1 sequence (Q92731 whole entry)": "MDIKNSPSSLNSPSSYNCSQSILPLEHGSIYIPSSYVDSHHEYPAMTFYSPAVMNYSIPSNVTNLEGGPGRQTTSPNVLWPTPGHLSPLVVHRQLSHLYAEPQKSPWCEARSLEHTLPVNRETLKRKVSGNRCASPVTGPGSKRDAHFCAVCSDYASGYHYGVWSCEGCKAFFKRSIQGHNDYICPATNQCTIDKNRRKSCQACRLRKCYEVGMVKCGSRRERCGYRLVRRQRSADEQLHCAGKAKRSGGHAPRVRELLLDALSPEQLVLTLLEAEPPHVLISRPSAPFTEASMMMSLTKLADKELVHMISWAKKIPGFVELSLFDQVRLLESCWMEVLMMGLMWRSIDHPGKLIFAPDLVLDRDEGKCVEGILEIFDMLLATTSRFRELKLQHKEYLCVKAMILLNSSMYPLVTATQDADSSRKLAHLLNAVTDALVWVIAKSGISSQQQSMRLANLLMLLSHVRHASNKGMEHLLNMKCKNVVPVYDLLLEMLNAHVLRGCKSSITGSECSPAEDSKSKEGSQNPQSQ", "experiment": "Luciferase assay (3×ERE TATA luc), MG63 cell line", "type": "cell-based", "conditions": "for Luciferase activity (-fold): MG63, 24 h, non-treated group = 1", "description": "as §1, §2, §3, §4, §5\nAll experiments were carried out in triplicate and were repeated at least three times. For the luciferase assay, total cell lysates were prepared, the firefly luciferase activity was assayed and normalized to the renilla luciferase activity according to the manufacturer's instructions (Promega). […]"}, "[5]": {"test_system": "MCF7 breast cancer cells", "experiment": "MTT assay, cancer cell growth", "type": "cell-based, human", "conditions": "48 h, control DMSO", "description": "Cell viability was estimated by the MTT (3-[4,5-dimethylthiazol-2-yl]-2,5-diphenyltetrazolium bromide; Sigma-Aldrich) assay to confirm cancer cell growth inhibitory effects of eupatilin.\nMCF7 breast cancer cells were seeded onto a 96-well plate and incubated for 24 hours. […] On the day of collection, 50 μl of MTT solution (5 mg/ml in PBS) was added to the medium, followed by incubation at 37° C. for 4 hours. The MTT-containing medium was removed and the cells were solubilized in DMSO (100 μl) for 30 min. The cell viability was determined in terms of an optical density at 540 nm using a microplate spectrophotometer (SpectraMax; Molecular Devices, Sunnyvale, Calif.).\nEthanol which is a vehicle was served as control for the E2-treated group, and DMSO was served as control for the eupatilin-treated group.\nThe viability is expressed in terms of a relative ratio by taking a value of the control to be 100, and the lethality is also expressed in terms of a relative ratio by taking a value of the control to be 100."}, "[6]": {"test_system": "MG-63 cells", "experiment": "ALP activity in osteoblastic cells", "type": "cell-based, human", "conditions": "24 h", "description": "The ALP activity in MG-63 cells treated with eupatilin was measured to confirm that eupatilin enhances a bone density in osteoblastic cells. […] Based on the fact that ALP degrades p-nitrophenylphosphate into p-nitrophenol and phosphate, effects of eupatilin on osteoblasts were observed by measuring an ALP activity in terms of an absorbance ratio between the absorbance of each substance and the absorbance of the control at 405 nm.\nAfter 24 hours of the treatment, lysates were prepared and slowly shaken for 30 min. Then, the ALP activity was assayed by measuring the release of p-nitrophenol from p-nitrophenylphosphate (20 mM in 1M diethanolamine buffer supplemented with MgCl2 at pH 9.8). The absorbance was measured at 405 nm. The standard curve was drawn using various concentrations of […] within the range of 0 to 0.1 U/ml PBS-T. The ALP values were adjusted for the protein content of the corresponding cell lysates. The cultures protein content was quantified by means of a bicinchoninic acid protein assay (Thermo Scientific). The results obtained were compared with those of the control to which only BSA was added at a concentration of 100 nM and no specimen was added."}}, "data": [{"compound": "C[C@]12CC[C@@H]3c4ccc(O)cc4CC[C@H]3[C@@H]1CC[C@@H]2O", "note": "[E2, 17-β-estradiol, reference compound]", "values": [{"measurement": "Estrogen receptor subtype through which the substance acts (luciferase assay with siERα / siERβ)", "setting": "[1]; E2 10^−7 M, FIG. 1", "result": "largely induces cell proliferation via only ERα"}, {"measurement": "Estrogen receptor subtype through which the substance acts (luciferase assay with siERα / siERβ)", "setting": "[2]; E2 10^−7 M, FIG. 2", "result": "largely induces cell proliferation via only ERα"}]}, {"compound": "COc1ccc(-c2cc(=O)c3c(O)c(OC)c(O)cc3o2)cc1OC", "note": "[Eupatilin, 5,7-dihydroxy-3′,4′,6-trimethoxyflavone]", "values": [{"measurement": "Luciferase activity (-fold)", "setting": "[1]; eupatilin 0.01 μg/ml", "result": "2.4 -fold"}, {"measurement": "Luciferase activity (-fold)", "setting": "[1]; eupatilin 0.1 μg/ml", "result": "2.3 -fold"}, {"measurement": "Luciferase activity (-fold)", "setting": "[1]; eupatilin 1 μg/ml", "result": "2.8 -fold"}, {"measurement": "Estrogen receptor subtype through which the substance acts (luciferase assay with siERα / siERβ)", "setting": "[1]; eupatilin 0.1 or 1.0 μg/ml, FIG. 3", "result": "acts equally on both ERα and ERβ"}, {"measurement": "Luciferase activity (-fold)", "setting": "[3]; eupatilin 0.01 μg/ml", "result": "2.9 -fold"}, {"measurement": "Luciferase activity (-fold)", "setting": "[3]; eupatilin 0.1 μg/ml", "result": "3.3 -fold"}, {"measurement": "Luciferase activity (-fold)", "setting": "[3]; eupatilin 1 μg/ml", "result": "3.7 -fold"}, {"measurement": "Estrogen receptor subtype through which the substance acts (luciferase assay with siERα / siERβ)", "setting": "[2]; eupatilin 0.1 or 1.0 μg/ml, FIG. 4", "result": "acts equally on both ERα and ERβ"}, {"measurement": "Luciferase activity (-fold)", "setting": "[2]; eupatilin 0.01 μg/ml", "result": "1.4 -fold"}, {"measurement": "Luciferase activity (-fold)", "setting": "[2]; eupatilin 0.1 μg/ml", "result": "1.9 -fold"}, {"measurement": "Luciferase activity (-fold)", "setting": "[2]; eupatilin 1 μg/ml", "result": "2.9 -fold"}, {"measurement": "Luciferase activity (-fold)", "setting": "[4]; eupatilin 0.01 μg/ml", "result": "2.1 -fold"}, {"measurement": "Luciferase activity (-fold)", "setting": "[4]; eupatilin 0.1 μg/ml", "result": "1.7 -fold"}, {"measurement": "Luciferase activity (-fold)", "setting": "[4]; eupatilin 1 μg/ml", "result": "1.6 -fold"}, {"measurement": "Estrogen receptor subtype through which the substance acts (luciferase assay with siERα / siERβ)", "setting": "[4]; MG-63 osteoblastic cells, siRNA 50 nM, eupatilin 0.1 or 1.0 μg/ml, FIG. 6", "result": "acts selectively on ERβ"}, {"measurement": "Cell lethality (% relative to control)", "setting": "[5]; eupatilin 0.1 μg/ml", "result": "21.5 % relative to control"}, {"measurement": "Cell lethality (% relative to control)", "setting": "[5]; eupatilin 1 μg/ml", "result": "24.5 % relative to control"}, {"measurement": "ALP activity (% relative to control)", "setting": "[6]; eupatilin 0.2 μg/ml", "result": "20.5 % relative to control"}, {"measurement": "ALP activity (% relative to control)", "setting": "[6]; eupatilin 2.0 μg/ml", "result": "60 % relative to control"}]}]}
